# In patent US7456133B2, “Substituted arylketones” (Bayer CropScience AG, priority 2001, dated 2008):
# Legend:
# [1] = system: weeds; assay: Post-emergence test, damage to weeds; assay type: in vivo; conditions: test plants of 5-15 cm sprayed, rated after three weeks
# Experimental: Solvent: 5 part by weight of acetone
# (§1) Emulsifier: 1 part by weight of alkylaryl polyglycol ether
# (§2) To produce a suitable preparation of active compound, 1 part by weight of active compound is mixed with the stated amount of solvent, the stated amount of emulsifier is added and the concentrate is diluted with water to the desired concentration.
# Test plants of a height of 5-15 cm are sprayed with the preparation of active compound such that the particular amounts of active compound desired are applied per unit area. The concentration of the spray liquor is chosen such that the particular amounts of active compound desired are applied in 1000 l of water/ha.
# (§3) After three weeks, the degree of damage to the plants is rated in % damage in comparison to the development of the untreated control. The figures denote: • 0%=no effect (like untreated control) • 100%=total destruction
# [2] = system: weeds; assay: Pre-emergence test, damage to weeds; assay type: in vivo; conditions: soil sprayed 24 hours after sowing, rated after three weeks
# Experimental: Solvent: 5 parts by weight of acetone
# as §1, §2
# Seeds of the test plants are sown in normal soil. After 24 hours, the soil is sprayed with the preparation of active compound such that the particular amount of active compound desired is applied per unit area. The concentration of active compound in the spray liquor is chosen such that the particular amount of active compound desired is applied in 1000 litres of water per hectare.
# as §3
# [3] = Log P by reversed-phase HPLC (C 18), acidic range; assay type: physicochemical; conditions: reversed-phase HPLC column (C 18); given in the preparation examples, acidic or neutral range not given
# Experimental: Log P values given in the tables were determined in accordance with EEC Directive 79/831 Annex V.A8 by HPLC (High Performance Liquid Chromatography) using a reversed-phase column (C 18). Temperature: 43° C. (a) Mobile phases for the determination in the acidic range: 0.1% aqueous phosphoric acid, acetonitrile; linear gradient from 10% acetonitrile to 90% acetonitrile—the corresponding measurement results in Tables 1 and 2 are labelled^a).
chromatographic logP [3],Structure (SMILES),activity against weeds [1],activity against weeds [2]
2.74,CC(C)NC(=S)NCc1c(Cl)ccc(C(=O)C2=C(O)CCCC2=O)c1Cl [Example I-2-3],strong activity,strong activity
1.41,"CCn1ncc(C(=O)c2ccc(Cl)c(OCCNC(C)=O)c2Cl)c1O [Example I-2-1, N-(2-{2,6-dichloro-3-[(1-ethyl-5-hydroxy-1H-pyrazol-4-yl)-carbonyl]-phenoxy}-ethyl)-acetamide]",strong activity,strong activity
